What was measured:
RhoA = RhoA (Homo sapiens, UniProt P61586); experiment: LC-MS/MS on HCT116 cells treated with CL16; type: cell-based; parameters: endogenous in cells; host or cells: HCT116; details: CL16 25 or 50 μM, 4 hours
Procedure: HCT116 cells were treated with DMSO or CL16 (25 or 50 μM) in complete medium for 4 hours, washed with PBS, harvested, and lysed in PBS by sonication. The protein amount of the samples was determined by BCA assay and normalized. The cell lysates in PBS were reduced by TCEP (1 mM) at 65° C. for 30 min, followed by alkylation with iodoacetamide (18 mM) at 37° C. for 30 min in the dark. The mixtures were added with prechilled acetone (600 μL) for protein precipitation at −20° C. overnight. The samples were centrifuged at 8000g for 10 min at 4° C. The supernatant was discarded and the dried pellet was resuspended in […] in PBS (100 μL). Sequencing grade trypsin (Promega #V5111) were added to the samples for overnight digestion at 37° C. with constant shaking. The solutions were then acidified with formic acid (FA; final concentration 5%), centrifuged at 13,200 rpm for 30 min at 4° C. The supernatant was collected and stored at −80° C. before MS analysis.
The peptide solutions were dried and desalted by C18 Stage tips, and the peptides were loaded onto an Aurora C18 UHPLC column (75 μm i.d.×25 cm length×1.6 μm particle size (IonOpticks Australia) coupled to timsTOF Pro mass spectrometer (Bruker). […]

HCT116 cells = experiment: Gel ABPP in HCT116 cells with CL16-alkyne; type: cell-based, human
Procedure: HCT116 and SW620 cells were plated onto 6-well plate at a density of 5×10^5 cells per well overnight. Then the cells were treated with CL16 at indicated concentration for 2 hours, followed by treatment with CL16-alkyne (1 μM) for 2 hours. After treatment, the cells were washed with PBS and lysed by probe sonication. Cell debris were removed by centrifugation at 5,000g for 10 min at 4° C. 50 μL of normalized protein lysates (2 mg/mL) were labeled with azide-fluor 545 by copper-catalyzed azide-alkyne cycloaddition at room temperature in dark for an hour. Then, the reaction was quenched by boiling in sampling buffer and samples were subjected to SDS-PAGE to separate proteins band for measuring in-gel fluorescence. After imaging, the gel was washed with MilliQ and incubated with Coomassie Blue stain with gentle shaking.
To identify protein target and any off-targets of CL16 in CRCs, a molecular probe of CL16, CL16-alkyne (FIG. 6A), was synthesized. […] The protein bands were then visualized by their in-gel fluorescence or blotted for RhoA. […] The probe-labeled proteins were installed with rhodamine through CuAAC, and visualized by their in-gel fluorescence after SDS-PAGE. A protein band with strong fluorescence was found at −22 kDa in the sample incubated with CL16-alkyne only, in line with the molecular weight of RhoA (FIG. 6C).

RhoA, sequence (P61586 whole entry): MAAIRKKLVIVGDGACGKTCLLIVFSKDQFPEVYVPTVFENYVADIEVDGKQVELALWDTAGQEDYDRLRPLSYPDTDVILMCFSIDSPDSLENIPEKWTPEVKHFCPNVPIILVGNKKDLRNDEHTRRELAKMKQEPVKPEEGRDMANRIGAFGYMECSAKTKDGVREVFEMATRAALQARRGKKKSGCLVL

Compound: O=C(CCl)N1N=C(c2cc3ccccc3o2)CC1c1ccco1 (stereo not drawn) [CL16]
- covalent modification site on RhoA (RhoA): Cys16
- fluorescent protein band at 22 kDa labeled by CL16-alkyne (HCT116 cells; CL16 pre-treatment at 10 μM): complete abolishment of the protein band
- off-target binding (HCT116 cells; HCT116 cells): minimal off-target binding

From patent US20250073209A1, “COVALENT TARGETING OF RhoA FOR CANCER THERAPY” (The University of Hong Kong, priority 2023, published 2025)
